Reference: ChEMBL document CHEMBL1147994 (Bioorg Med Chem Lett, 2007)

Legend:
[1] = molecular target: Dipeptidyl peptidase 9 (Homo sapiens, UniProt Q86TI2); assay: Inhibition of DPP9
[2] = molecular target: Dipeptidyl peptidase 2 (Homo sapiens, UniProt Q9UHL4); assay: Inhibition of QPP
[3] = molecular target: Dipeptidyl peptidase 8 (Homo sapiens, UniProt Q6V1X1); assay: Inhibition of DPP8

Measured: IC50

Sequence of Dipeptidyl peptidase 9 (Q86TI2 whole entry): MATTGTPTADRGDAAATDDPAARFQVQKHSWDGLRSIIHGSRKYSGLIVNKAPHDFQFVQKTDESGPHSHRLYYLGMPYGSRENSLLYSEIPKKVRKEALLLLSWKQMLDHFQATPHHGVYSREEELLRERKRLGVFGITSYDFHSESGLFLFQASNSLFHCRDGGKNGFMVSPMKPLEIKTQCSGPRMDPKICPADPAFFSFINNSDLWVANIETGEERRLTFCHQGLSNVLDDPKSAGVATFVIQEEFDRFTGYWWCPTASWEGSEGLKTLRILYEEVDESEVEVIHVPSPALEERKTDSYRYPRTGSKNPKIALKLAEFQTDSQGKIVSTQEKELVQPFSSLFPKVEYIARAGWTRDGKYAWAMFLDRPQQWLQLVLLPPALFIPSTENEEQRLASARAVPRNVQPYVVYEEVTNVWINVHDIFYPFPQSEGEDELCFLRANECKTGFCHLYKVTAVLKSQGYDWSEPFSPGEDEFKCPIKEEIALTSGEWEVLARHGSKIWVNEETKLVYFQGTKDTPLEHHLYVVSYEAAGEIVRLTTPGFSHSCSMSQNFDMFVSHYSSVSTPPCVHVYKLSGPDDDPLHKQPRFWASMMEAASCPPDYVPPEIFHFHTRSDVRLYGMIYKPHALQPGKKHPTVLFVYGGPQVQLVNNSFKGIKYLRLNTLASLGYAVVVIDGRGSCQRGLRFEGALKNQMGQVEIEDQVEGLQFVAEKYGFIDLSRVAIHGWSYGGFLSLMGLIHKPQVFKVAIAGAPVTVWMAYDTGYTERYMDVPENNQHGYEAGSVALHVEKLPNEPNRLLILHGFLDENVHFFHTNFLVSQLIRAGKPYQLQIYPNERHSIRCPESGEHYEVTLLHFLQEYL
Sequence of Dipeptidyl peptidase 8 (Q6V1X1 whole entry): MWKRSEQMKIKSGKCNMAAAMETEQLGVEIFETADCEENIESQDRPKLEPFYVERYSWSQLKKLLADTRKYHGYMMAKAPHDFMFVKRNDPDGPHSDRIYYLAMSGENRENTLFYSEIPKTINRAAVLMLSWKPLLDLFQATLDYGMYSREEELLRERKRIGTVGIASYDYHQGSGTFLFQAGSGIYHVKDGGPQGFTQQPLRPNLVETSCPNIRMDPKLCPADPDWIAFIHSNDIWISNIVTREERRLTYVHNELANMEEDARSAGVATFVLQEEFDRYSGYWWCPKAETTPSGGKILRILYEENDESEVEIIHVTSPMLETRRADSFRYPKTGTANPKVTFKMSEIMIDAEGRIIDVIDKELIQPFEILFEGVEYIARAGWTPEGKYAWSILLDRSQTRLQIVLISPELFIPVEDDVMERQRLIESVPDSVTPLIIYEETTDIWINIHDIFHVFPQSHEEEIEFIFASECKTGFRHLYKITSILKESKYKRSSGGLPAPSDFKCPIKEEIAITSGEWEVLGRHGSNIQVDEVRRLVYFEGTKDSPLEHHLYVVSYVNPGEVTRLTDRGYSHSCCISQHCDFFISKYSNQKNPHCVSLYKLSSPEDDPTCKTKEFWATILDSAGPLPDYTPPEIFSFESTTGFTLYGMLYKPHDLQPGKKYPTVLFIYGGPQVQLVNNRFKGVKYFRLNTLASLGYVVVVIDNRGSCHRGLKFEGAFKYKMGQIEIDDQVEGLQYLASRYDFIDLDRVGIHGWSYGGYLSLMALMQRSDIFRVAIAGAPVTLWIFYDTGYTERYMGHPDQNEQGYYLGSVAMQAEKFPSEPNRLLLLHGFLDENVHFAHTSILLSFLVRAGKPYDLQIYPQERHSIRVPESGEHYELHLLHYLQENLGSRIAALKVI

N[C@H]1C[C@H](N2CCn3c(nnc3C(F)(F)F)C2)CC[C@@H]1c1cc(F)c(F)cc1F
> 100 µM: [1] | [2] | [3]
